Series [1] has as its system calf-thymus DNA (CT-DNA). In words: Isothermal titration calorimetry (ITC) binding to CT-DNA. To be noted: for ΔG / ΔH / −TΔS: Tris-HCl buffer pH=7.4, 25° C; for N [bp]: one set of site binding model. The method, then:
Relative binding affinity of complexes 1, 2, and 3 towards calf-thymus DNA (CT-DNA) were evaluated using isothermal titration calorimetry (ITC) (FIG. 20). Association constants and thermodynamic parameters (Table 4) clearly reveal that the binding affinities for complexes 1 and 2
ITC experiments were performed with the Microcal iTC200. CT-DNA (0.1 mmol) and complexes 1 (5 mmol), 2 (5 mmol) and 3 (5 mmol) were used for these experiments. All titrations were conducted in Tris-HCl buffer (5 mmol Tris and 25 mmol NaCl), pH=7.4 at 25° C. In each titration CT-DNA was loaded into the cell and 1 or 2 or 3 were taken into the syringe. Aliquot of 2 μL of compounds were injected into the cell containing DNA. In each experiment, the raw isotherms were corrected for heat of dilution by subtracting the isotherms representing the compounds injected into the Tris-HCl buffer. The resulting isotherms were fitted with the one set of site binding model provided with Microcal iTC200. (Refer FIG. 21)

A short description of series [2]: Partition coefficient (log P), shake-flask method, n-octanol/water. The conditions noted are these: for log P: values of text and unnumbered table; for LogP: values of Table 2. As for the experimental part: Partition coefficients (log P) for these three complexes were evaluated by shake-flask method and these were correlated to the lipophilicity of respective complexes.
n-Octanol saturated water and water saturated octanol was obtained using Millipore water stirred with n-octanol for 24 h before the two layers were separated by centrifugation (3000 rpm, 5 min). The chloride salts of complex 1 and 2 were dissolved in n-octanol saturated water giving concentrations ranging from 0.5 to 3.0 mmol. This was then mixed with water saturated n-octanol in the ratio of 1:1 (v/v). Resulting solvent mixtures were vertexed for 30 min at room temperature, and then were subjected to centrifugation (3000 rpm, 5 min) to get two distinct separate layers. Samples from each layer were obtained using a fine-gauge needle and the absorbance of respective complex in each phase determined using UV-Vis spectroscopy.

Series [3] relates to MCF-7 cell line. Nature of the series: Cellular uptake and quantification of Ru by MP-AES. The format is cell-based. The conditions noted are these: MCF-7, 50 μM, 24 h, 37° C. As for the experimental part:
Cellular accumulation studies for complexes 1, 2, and 3 were conducted on the MCF-7 cell line. Briefly, 2.5×10^5-1×10^6 cells were seeded on a petridish; the metal complexes were then added to give final concentrations of 50 μM and allowed a further 24 h of drug exposure at 37° C. After this time, cells were treated with trypsin, counted using haemocytometer, and cells collected were digested overnight in concentrated nitric acid (73%) at 60° C.; Samples were made up to exactly 10 mL using deionized water and the amount of ruthenium taken up by the cells was estimated by MP-AES (Microwave Plasma Atomic Emission Spectroscopy), using an Agilent Technologies instrument (Model No: 4100 MP-AES). The solvent used for all MP-AES experiments was double deionized water (DDW). The concentrations used for the calibration curve were in all cases 0, 5, 7.5, 10 ppm. The isotope detected was ^101Ru; readings were made in duplicate (N2 gas mode).

The test system of series [4] is live MCF-7 cells. In words: CLSM imaging of live cells, co-staining with ER-Tracker Green. The format is cell-based. The conditions noted are these: live MCF-7, 50 μM, 37° C. As for the experimental part:
In the light of the negligible toxicity towards MCF-7 cells, the application of the above complexes as potential as imaging agents was explored in live MCF-7 cells by incubating the cells separately with 50 μM of 1, 2, and 3 at 37° C.

In series [5] the test system is PFA fixed MCF-7 cells. Nature of the series: CLSM imaging of fixed cells, co-staining with DAPI. The format is cell-based. The conditions noted are these: fixed MCF-7, excitation 442 nm, emission 620 nm. As for the experimental part:
In another embodiment, co-staining experiments were performed with DAPI, a commonly used commercial nuclear staining agent.
To ensure that DAPI had no influence in internalization of the complexes 1 and 2, identical experiments with fixed MCF-7 cells in absence of DAPI were performed (FIG. 22 c) and a distinct red emission were observed from the nucleus. Luminescence intensity profile plots confirmed that the emission was actually from the nucleus.
MCF-7 and HEK293T cells were cultured in DMEM respectively supplemented with 10% FBS and penicillin/streptomycin. Cell lines were maintained at 37° C. in an atmosphere of 5% CO2 and routinely sub-cultured. For CLSM, cell cultures were grown on 6 well plate with coverslips, after 24 hrs of incubation the cells were treated with solutions of 1 or 2 (20 μM,) in serum containing media and incubated for 2 h. After incubation media was removed and cells were washed with 1×PBS buffer and fixed them using paraformaldehyde and stained for confocal microscopy. Nuclear staining was performed by using DAPI. Olympus Fluoview was used to observe the compound staining Compound was excited at 443 nm and emission was detected at 620 nm wavelength.
DAPI was excited by using a 405 nm diode laser and emission detected with a 420-480 nm long-pass band-filter. (FIG. 14, 15, 16, 17)

A short description of series [6]: Fluorescence quantum yield and luminescence lifetime (TCSPC) in water. To be noted: pure aqueous medium; for τ (luminescence lifetime): excitation 443 nm; for Φf (fluorescence quantum yield): reference Ru(bpy)3Cl2. Format: physicochemical. An excerpt: UV-Vis spectra were obtained by using a Cary 500 scan UV-Vis-NIR spectrometer. Room temperature emission spectrum was obtained using an Edinburgh instrument Xe-900 spectro fluorometer. The fluorescence quantum yields, Φf were estimated by using equation 1 in water medium using the integrated emission intensity of Ru(bpy)3Cl2 (Φf=0.042 in H2O at RT) as a reference. (FIG. 20)
Luminescent lifetimes were obtained using a Horiba TCSPC (Time Correlated Single Photon Counting) system exciting at 443 nm. 10,000 counts were collected for each lifetime measurement and all measurements were performed in triplicate using DAS software to confirm results. The calculation of the luminescent lifetimes was performed by fitting an exponential decay function to each decay plot to extract the lifetime information using DAS6 fluorescence decay analysis software (FIG. 2).

Series [7] is described as follows: Photostability under continuous irradiation by confocal microscopy. The format is physicochemical. The conditions noted are these: for reduction of fluorescence intensity upon irradiation: fixed MCF-7, exposure at 442 nm for 300 sec. An excerpt:
In yet another embodiment, photostability of these two complexes 1 & 2 compared with that for DAPI dye by using confocal microscopy.

Series [8] relates to nuclear DNA of fixed MCF-7 cells. In words: DNase I / RNase A digest experiments (CLSM). Format: cell-based. The conditions noted are these: fixed MCF-7 cells pre-treated with DNase I. As for the experimental part:
Further, in order to check the preferential binding of these two reagents to nuclear DNA, deoxyribonuclease (DNase I) and ribonuclease (RNase A) digest experiments were carried out. DNase I is an enzyme that catalyzes the hydrolytic cleavage of phosphodiester linkages in the DNA and RNase A is a type of nuclease that catalyzes the degradation of RNA into smaller components. DAPI was used for control experiments.

The nature of series [9]: Water solubility.

On to `Cc1ccnc(-c2cc(C)ccn2)c1.F[P-](F)(F)(F)(F)F.F[P-](F)(F)(F)(F)F.[Ru+2].c1ccc(-c2ccccn2)nc1.c1ccc(-c2ccccn2)nc1` [Complex 3, [Ru(bpy)2(L3)]2+, reference compound], for which, in [1], the ΔG was −4.52 ± 0.25 Kcal/M^−1, the ΔH is 0.51 ± 0.25 Kcal/M^−1, the “−TΔS” value was found to be 5.03 Kcal/M^−1l and the “N [bp]” value stood at 0.354 ± 0.14 bp. In addition, the log P (commonly the decadic logarithm of the partition coefficient of the neutral form, usually between octanol and water) in series [2] is reported as −1.1. In series [3], this compound returned a Ru accumulation of 0.8 ppm/10^6 cells. In addition, in [4], the “extent of cellular uptake” value is “less as compared to the complexes 1 and 2”; the “intracellular localisation of emission in live cells” value (“intracellular localisation” below) is given as “did not show any such specificity towards lipid dense regions”. The “staining of fixed cells” value in series [5] is on record as “non-specific staining of cellular compartments”. For the same compound, in series [6], the “τ (luminescence lifetime)” value was determined as 321 ns and the “Φf (fluorescence quantum yield)” value was determined as 0.05.
As to `N=C(N)c1ccc(-c2cc3ccc(C(=N)N)cc3[nH]2)cc1` [DAPI, 4′,6-diamidino-2-phenylindole, reference compound], the “fluorescence intensity upon continuous irradiation” value in [7] (fixed MCF-7, at 359 nm for 300 sec) is “drastically reduced”.
Take “{bis-(2,2′-bpy)-(5-fluoro-1-((4′-methyl-[2,2′-bipyridin]-4-yl)methyl)pyrimidine-2,4(1H,3H)-dione)}ruthenium(II) dichloride [Complex 1]”: in [1], the ΔG is reported as −6.68 ± 0.41 Kcal/M^−1, the ΔH was −35.5 ± 0.41 Kcal/M^−1 and the “N [bp]” value was 0.61 ± 0.0 bp. In series [2], the LogP (commonly the decadic logarithm of the partition coefficient of the neutral form, usually between octanol and water) is listed as −0.99 ± 0.05; the “log P” value is reported as −0.85. The compound further yielded a Ru accumulation in series [3] of 1.5 ppm/10^6 cells. Moreover, the “intracellular localisation” value in [4] is recorded as “exactly superimposed with those for ER-Tracker™ Green”. Further, the “staining of fixed cells” value in [5] is reported as “as efficient as DAPI in staining the nucleus”. In addition, the “intracellular fluorescence intensity from the nucleus after DNase I pre-treatment” value in series [8] was “significantly reduced”. Also, in [7], the “reduction of fluorescence intensity upon irradiation” value is about 20%. Also, in series [6], the “τ (luminescence lifetime)” value is 336 ns and the “Φf (fluorescence quantum yield)” value was found to be 0.048. The water solubility entry in series [9] was “highly water soluble”.
Consider “{bis-(2,2′-bpy)-(1-((4′-methyl-[2,2′-bipyridin]-4-yl)methyl)pyrimidine-2,4(1H,3H)-dione)}ruthenium(II) dichloride [Complex 2]”, for which, in [1], the ΔG is −6.00 ± 0.02 Kcal/M^−1, the ΔH turned out to be 1.47 ± 0.02 Kcal/M^−1, the “−TΔS” value is 7.47 Kcal/M^−1l and the “N [bp]” value came to 0.98 ± 0.01 bp. Also, in series [2], the LogP is −1.59 ± 0.09. In [3], this compound came in with a Ru accumulation of 2.3 ppm/10^6 cells. Further, in series [4], the “intracellular localisation” value is “exactly superimposed with those for ER-Tracker™ Green”. For the same compound, the “staining of fixed cells” value in series [5] is “as efficient as DAPI in staining the nucleus”. Further, the “intracellular fluorescence intensity from the nucleus after DNase I pre-treatment” value in series [8] was “significantly reduced”. Further, the “reduction of fluorescence intensity upon irradiation” value in [7] is reported as about 20%. In series [6], the “τ (luminescence lifetime)” value is listed as 323 ns and the “Φf (fluorescence quantum yield)” value worked out at 0.050. In series [9], the water solubility result was “highly water soluble”.

These data come from patent US9505794B2, “Ruthenium (II) complexes, preparation and uses thereof” (priority 2014, dated 2016).
